We go through one compound from patent US9296778B2, “3′,5′-cyclic phosphate prodrugs for HCV infection” (Idenix Pharmaceuticals, Inc., priority 2012, dated 2016).

pEC50: −log10 of the molar value. Bounds are passed on as bounds.

Data set [1] in a line: Stability in mouse blood. Type of data set: in vitro ADME. As to conditions: on ice, percent unchanged test compound. In a few lines:
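Test compound at 0.5 μM final in whole blood, held on ice; sampled at 0, 0.5 and 1 hr in triplicate. Samples quenched with acetonitrile containing internal standard and analysed by LC-MS/MS; percent unchanged compound from peak area ratio to internal standard.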

The nature of data set [2]: Stability in fresh human whole blood. Type of data set: in vitro ADME. As to conditions: 0.5 μM, percent unchanged test compound. In short, it runs like this: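 Test compound at 0.5 μM was incubated at 37 °C in fresh human K2EDTA whole blood, stored at 2–8 °C and used within 7 days, in triplicate. Samples taken at 0, 0.5, 1 and 2 h were quenched in cold acetonitrile containing internal standard and analysed by LC-MS/MS. Percent unchanged compound was derived from peak-area ratios.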

Data set [3] relates to fresh human hepatocytes. Kind of data set: Release of active metabolite in fresh human hepatocytes. Type of data set: in vitro ADME. As to conditions: 10 μM compound. In short, it runs like this: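 Overnight-acclimatized hepatocytes (0.8 million cells/well human, 0.5 million mouse) incubated at 37 °C with 10 μM test compound (0.1% DMSO). Sampled at 6, 24, 48 h (human) or 1, 4, 8, 12, 24 h (mouse); cells washed, extracted in cold 70% methanol, intracellular content quantified by LC-MS/MS with internal standard.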

A short description of data set [4]: Stability in simulated gastric fluid. Type of data set: in vitro ADME. The conditions noted are these: 100 μM, 2 hours at 37° C., percent of the peak area at time zero. As to the method: Simulated gastric and intestinal fluids containing pepsin and pancreatin respectively were prepared according to the U.S. Pharmacopoeia USP291 procedure (www.pharmacopeia.cn/v29240/usp29nf24s0_ris1s126.html). Compounds (final concentration 100 μM) were incubated in duplicate in the appropriate fluid for 2 hours at 37° C. The samples were quenched with 200 μl cold acetonitrile, vortexed for 30 seconds and then centrifuged at 16,100 g for 10 min. The supernatants were analyzed by HPLC on a C-18 column with UV detection at 252 nm. The time 0 samples were prepared by adding SGF or SIF fluid to the quenching solvent followed by the test compound. Stability of the compounds was determined by peak area of the test compounds after incubation and calculated as percent of the peak area observed at time zero.

The nature of data set [5]: Stability in simulated intestinal fluid. Type of data set: in vitro ADME. The conditions noted are these: 100 μM, 2 hours at 37° C., percent of the peak area at time zero. In short, it runs like this: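 Compounds at 100 μM final, in duplicate, kept 2 h at 37° C in USP gastric fluid (pepsin) or intestinal fluid (pancreatin). Quenched with cold acetonitrile, supernatant analysed by C-18 HPLC, UV 252 nm. Remaining compound expressed as percent of time-zero peak area.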

The nature of data set [6]: Stability in liver subcellular fractions (microsomes). Type of data set: in vitro ADME, human. As to conditions: 10 μM, 1.0 mg/mL microsomal protein, NADPH, 60 min, percent unchanged test compound. On the procedure: Stability of compounds were determined in subcellular fractions (microsomes) of human liver in duplicate for each matrix. Pooled liver microsomal proteins (1.0 mg/mL), suspended in incubation buffer (100 mM potassium phosphate, pH 7.4, 5 mM MgCl2, and 0.1 mM EDTA), were preincubated for 5 min at 37° C. with 10 μM of a test compound from a 10 mM stock solution in DMSO (final DMSO concentration was 0.1%); the reaction was initiated by the addition of NADPH (3 mM final concentration). At specific times (0 and 60 min), 0.1 mL samples were taken and the reaction terminated by the addition of 4 volumes of stop solution (acetonitrile with 500 ng/mL carbutamide as an internal standard). The samples were vortexed for 30 sec and then centrifuged at 16,000 g for 10 min. 100 μL of supernatants were transferred to 96 deep-well plates preloaded with 100 μL distilled water and analyzed after mixing by LC-MS/MS. The MS peak area ratio of the test compounds versus the internal standard was calculated and percent unchanged test compound over 60 minutes was calculated using this ratio.

Data set [7] relates to HCV genotype 1b replicon. The data set is described as follows: HCV Replicon Assay. Type of data set: cell-based. The conditions noted are these: Hepatitis C virus, 72 h, Zluc cells (Huh-7-derived, HCV genotype 1b replicon, luciferase reporter), 72 hours; read-out: HCV Replicon EC50. In a few lines: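 Zluc Huh-7 cells with HCV genotype 1b replicon and luciferase reporter treated with 5-fold dilutions (100 μM to 0.0000512 μM final) in duplicate, or at 1 and 10 μM. Luminescence read with ONE-glo; EC50 from dose-response fits, or % inhibition at the fixed concentrations.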

Take `CCOc1nc(N)nc2c1ncn2[C@@H]1O[C@@H]2COP(=O)(OCCCC(=O)OC(C)C)O[C@H]2[C@@]1(C)F` (single isomer, unassigned) [Compound 20 Diastereomer 1]: the “Stability WB_Mouse (ice; 1 hr)” value in data set [1] is listed as 1%. Moreover, the “Stability WB_Human (37° C.; 2 hr)” value in data set [2] came to 98%. For the same compound, the “FHH TP Cmax” value in data set [3] (fresh human hepatocytes) turned out to be 88 pmol/mill cells. Moreover, the “FHH TP AUC” value in data set [3] (fresh human hepatocytes, 6, 24 and 48 hours) came to 2393 pmol · hr/mill cells. In addition, in data set [4], the “Stability SGF” value is given as 98%. In addition, in data set [5], the “Stability SIF” value was 95%. In data set [6], the “Stability HLM (1 hr)” value came to 0.35%. Moreover, the pEC50 – broadly, the negative decadic logarithm of the EC50, by convention in mol/L – in data set [7] is above 6.60.
